{"source": "patent EP1424337A1", "about": "“4-hydroxy derivatives of 5,6,9,10-tetrahydro-10-((2-methyl-1h-imidazol-1-yl)methyl)-4h-pyrido-(3,2,1-jk)-carbazol-11(8h)-one” (Solvay Pharmaceuticals GmbH, priority 2002, dated 2004)", "key": {"5-HT3 receptor": {"target": "T1, 5-HT3 receptor (Cavia porcellus, UniProt O70212)", "T1 construct": "lleal segments were isolated and mounted in an organ bath; from tissue; host or cells: isolated guinea-pig ileal segments (female, Pirbright White)", "T1 sequence (O70212 20-490)": "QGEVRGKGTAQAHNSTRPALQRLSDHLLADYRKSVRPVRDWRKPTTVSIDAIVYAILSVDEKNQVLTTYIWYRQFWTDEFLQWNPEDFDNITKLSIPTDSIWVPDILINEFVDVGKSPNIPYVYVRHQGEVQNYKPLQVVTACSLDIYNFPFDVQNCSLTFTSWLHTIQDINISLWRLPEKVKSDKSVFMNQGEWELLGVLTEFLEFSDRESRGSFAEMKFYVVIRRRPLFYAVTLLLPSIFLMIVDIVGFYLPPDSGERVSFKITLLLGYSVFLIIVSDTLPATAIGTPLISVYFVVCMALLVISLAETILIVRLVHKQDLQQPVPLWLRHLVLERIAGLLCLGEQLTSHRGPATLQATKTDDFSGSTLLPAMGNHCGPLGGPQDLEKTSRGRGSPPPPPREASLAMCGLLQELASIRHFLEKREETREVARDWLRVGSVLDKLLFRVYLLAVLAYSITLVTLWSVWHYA", "test": "2-methyl-5-HT induced contractions in isolated guinea-pig ileal preparations (5-HT3 receptor antagonism, Schild plot)", "set-up": "species or system guinea pigs", "details": "for effect on concentration response curve for 2-methyl-5-HT: bath application; for effect on concentration response curve for 2-methyl-5-HT / Kb: guinea-pig ileum; for Kb: agonist 2-methyl-5-HT 0.32 - 100 µM, bath concentrations 0.1 and 1 µM (Ib), 1 and 3 µM (Ic), 5-6 preparations, read-out: pA2 (converted)", "source_text": "2. Effect of mammalian cilansetron 4-hydroxymetabolites from dog's urine of formulas Ib and Ic on 2-methyl-5-HT induced contractions in ileal preparations isolated from guinea pigs (5-HT3 receptor antagonism)\nIn this test method, the antagonistic potency of the mammalian cilansetron 4-hydroxymetabolites from dog's urine of formulas Ib and Ic was investigated by determining the shift of the concentration-response curve for the specific 5-HT3 receptor agonist 2-methyl-5-HT in preparations from the guinea-pig ileum.\nGuinea-pigs (female, Pirbright White, about 300 g) were killed by a blow on the head and bled from the carotid arteries. lleal segments were isolated and mounted in an organ bath containing a salt solution continuously gassed with carbogen and kept at 37 °C. The composition of the solution in mM was 136.9 NaCl, 2.7 KCI, 1.77 CaCl2, 0.8 MgCl2, 0.6 NaH2PO4, 11.9 NaHCO3, and 5 glucose. The preparations were preloaded with 10 mN and allowed to equilibrate for 90 - 120 minutes (= min.). The concentration response curves for 2-methyl-5-HT (0.32 - 100 µM, by company Sigma) were constructed non-cumulatively to avoid desensitization. The measurement was made at the point of maximal contraction and the agonist was washed out as soon as peak response was reached. A first 2-methyl-5-HT curve was followed by another concentration response curve in the presence of one concentration of the antagonist. The response to the highest concentration of 2-methyl-5-HT obtained in the first concentration response curve was set to 100 %. For each compound at least two concentrations of the antagonist were tested in different sets. Data from 5-6 preparations were used for each concentration response curve. Schild plots were calculated and the pA2 value was determined. The pA2-value is the negative logarithm of the molar concentration of the antagonist which causes a rightward shift of the concentration response curve for the agonist by a factor of 2. The higher the pA2-value is, the higher is the potency of a compound.\nAll test compounds were initially dissolved in dimethylsulfoxide (= DMSO) at concentrations of 10^-2 mol/I and were further diluted with water. The final bath concentrations for the different compounds used were 0.1 and 1 µM for compound of formula Ib and 1 and 3 µM for compound of formula Ic. […]\nIn this test method, the 5-HT3 agonist 2-methyl-5-HT evoked dose-dependent contractions of the guinea-pig ileum with a pD2-value of 5.2. The pD2-value is the negative logarithm of the molar […]."}, "serotonin 5-HT3 receptor": {"target": "T2, serotonin 5-HT3 receptor (Mus musculus, UniProt P23979)", "T2 construct": "the 5-HT3 receptor which was endogenously expressed in the human cell line N1E-115; endogenous in cells; host or cells: N1E-115 neuroblastoma cells (membrane suspensions)", "T2 sequence (P23979 24-483 isoform P23979-2 limits assumed)": "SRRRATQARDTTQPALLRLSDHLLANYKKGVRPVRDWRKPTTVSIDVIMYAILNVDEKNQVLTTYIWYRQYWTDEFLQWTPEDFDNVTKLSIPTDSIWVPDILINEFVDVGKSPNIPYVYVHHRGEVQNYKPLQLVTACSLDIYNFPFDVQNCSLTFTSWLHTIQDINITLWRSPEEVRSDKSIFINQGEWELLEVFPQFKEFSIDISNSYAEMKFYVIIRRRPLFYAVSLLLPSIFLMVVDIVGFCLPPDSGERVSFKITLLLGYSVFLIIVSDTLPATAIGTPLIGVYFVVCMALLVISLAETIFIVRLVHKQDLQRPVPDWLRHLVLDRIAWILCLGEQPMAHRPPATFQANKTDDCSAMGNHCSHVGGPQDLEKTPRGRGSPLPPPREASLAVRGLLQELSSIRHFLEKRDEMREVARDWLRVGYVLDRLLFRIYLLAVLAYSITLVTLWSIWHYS", "test": "Radioligand binding assay with [3H]-GR-65630 on membranes of cell line N1E-115", "set-up": "species or system human", "details": "for Ki: competition with [^3H]-GR-65630 (0.35 nM), N1E-115 membranes, 20 mM HEPES pH 7.4, 150 mM NaCl, 25°C, 60 min, Cheng and Prusoff, read-out: Kl", "procedure": "1. Affinity of 4-hydroxy derivatives of 5,6,9,10-tetrahydro-10-[(2-methyl-1H-imidazol-1-yl)methyl]-4H pyrido-[3,2,1-jk]-carbazol-11(8H)-one of formulas Ib - le for the human serotonin 5-HT3 receptor\nIn this test method, the ability of the 4-hydroxy derivatives of 5,6,9,10-tetrahydro-10-[(2-methyl-1H-imidazol-1-yl)methyl]-4H-pyrido-[3,2,1-jk]-carbazol-11(8H)-one of formulas Ib - le was assessed, for binding to the 5-HT3 receptor which was endogenously expressed in the human cell line N1E-115 and using tritiated GR-65630 as a radioligand.\nThe binding assays were carried out using the method of Hoyer and Neijt (see Hoyer, D., Neijt H.C., Mol. Pharmacol. 33, (1988) 303-309). Tritiated GR-65630 was used as radioligand and membrane suspensions, prepared in a known manner from the human neuroblastoma cell line N1E-115. Compounds have been tested for binding in various concentrations to compete with [^3H]-GR-65630 (0.35 nM final concentration) in 20 mM HEPES pH 7.4, containing 150 mM NaCl at 25°C for 60 min. Thereafter, the membranes were filtrated over glass fiber filters and bound radioactivity was counted by liquid scintillation counting. Each concentration was tested in triplicate, nonspecific binding was assessed by incubation with the reference compound MDL-72222 (1 µM).\nPlotting the amount of bound radioactivity against the concentration of the competing compound allowed estimation of an IC50 value, i.e. that concentration at which 50% of the control radioligand binding remains. […]"}}, "data": [{"smiles": "Cc1[nH]c2ccc(O)cc2c1CCN", "note": "[2-methyl-5-HT, reference compound]", "values": [{"measurement": "EC50", "setting": "5-HT3 receptor; agonist-evoked dose-dependent contractions of the guinea-pig ileum, read-out: pD2-value (converted)", "value": 6.31, "unit": "µM"}]}, {"smiles": "Cc1nccn1C[C@H]1CCc2c(c3cccc4c3n2CC[C@@H]4O)C1=O", "note": "[Ib]", "values": [{"measurement": "Ki", "setting": "serotonin 5-HT3 receptor", "value": 0.003, "unit": "µM"}, {"measurement": "effect on concentration response curve for 2-methyl-5-HT", "setting": "5-HT3 receptor", "value": "dose-dependent shift of the concentration response curve to the right"}, {"measurement": "Kb", "setting": "5-HT3 receptor", "value": 0.186, "unit": "µM"}]}, {"smiles": "Cc1nccn1C[C@H]1CCc2c(c3cccc4c3n2CC[C@H]4O)C1=O", "note": "[Ic]", "values": [{"measurement": "Ki", "setting": "serotonin 5-HT3 receptor", "value": 0.01, "unit": "µM"}, {"measurement": "effect on concentration response curve for 2-methyl-5-HT", "setting": "5-HT3 receptor", "value": "dose-dependent shift of the concentration response curve to the right"}, {"measurement": "Kb", "setting": "5-HT3 receptor", "value": 0.355, "unit": "µM"}]}, {"smiles": "Cc1nccn1C[C@@H]1CCc2c(c3cccc4c3n2CC[C@@H]4O)C1=O", "note": "[Id]", "values": [{"measurement": "Ki", "setting": "serotonin 5-HT3 receptor", "value": 0.0088, "unit": "µM"}]}, {"smiles": "Cc1[nH]cnc1CCC(=O)c1cn(C)c2ccccc12", "note": "[[^3H]-GR-65630, reference compound]", "values": [{"measurement": "Kd", "setting": "serotonin 5-HT3 receptor; radioligand, established separately, read-out: Kd, the affinity constant for [^3H]-GR-65630", "value": 0.00033, "unit": "µM"}]}, {"smiles": "Cc1nccn1C[C@@H]1CCc2c(c3cccc4c3n2CC[C@H]4O)C1=O", "note": "[le]", "values": [{"measurement": "Ki", "setting": "serotonin 5-HT3 receptor", "value": 0.038, "unit": "µM"}]}]}
